# Species: Rattus norvegicus
# Assay: DrugMatrix - Regimen: Daily Repeat
# Format: toxicity, organism-based, Sprague-Dawley
# Design: regimen Daily Repeat, gender Male, age 6-8 weeks
# Conditions: in vivo, po, route oral GAVAGE, […]; for ABSOLUTE BASOPHIL / ABSOLUTE EOSINOPHIL / ABSOLUTE LYMPHOCYTE / ABSOLUTE MONOCYTE / ABSOLUTE SEGMENTED NEUTROPHIL / BASOPHIL / EOSINOPHIL / ERYTHROCYTE COUNT / HEMATOCRIT / HEMOGLOBIN / LEUKOCYTE COUNT / LYMPHOCYTE / MEAN CORPUSCULAR HEMOGLOBIN / MEAN CORPUSCULAR HEMOGLOBIN CONCENTRATION / MEAN CORPUSCULAR VOLUME / MONOCYTE / NEUTROPHIL / NUCLEATED RED BLOOD CELLS / PLATELET COUNT: tissue Blood; for ALANINE AMINOTRANSFERASE / ALBUMIN / ALKALINE PHOSPHATASE / ASPARTATE AMINOTRANSFERASE / BLOOD UREA NITROGEN / CARBON DIOXIDE / CHLORIDE / CHOLESTEROL / CREATINE PHOSPHOKINASE / CREATININE / GLUCOSE / LACTATE DEHYDROGENASE / LIPASE / PHOSPHORUS / POTASSIUM / SODIUM / TOTAL BILIRUBIN / TOTAL PROTEIN / URIC ACID: tissue Plasma
# [1] = 0 mg/kg, 72 h, dose level Control, time 3 day
# [2] = 0 mg/kg, dose level Control, time 7 day
# [3] = 130 mg/kg, 72 h, dose level Low, time 3 day
smiles,measurement,setting,value
CCOC(=O)C(C)(C)Oc1ccc(Cl)cc1 [CLOFIBRATE],ABSOLUTE BASOPHIL,[1],0 CELLS/uL
same,ABSOLUTE EOSINOPHIL,[1],37.33 CELLS/uL
same,ABSOLUTE LYMPHOCYTE,[1],6295.33 CELLS/uL
same,ABSOLUTE MONOCYTE,[1],122.17 CELLS/uL
same,ABSOLUTE SEGMENTED NEUTROPHIL,[1],861.83 CELLS/uL
same,BASOPHIL,[1],0%
same,EOSINOPHIL,[1],0.5%
same,ERYTHROCYTE COUNT,[1],5.2 x10E6/uL
same,HEMATOCRIT,[1],32.58%
same,HEMOGLOBIN,[1],12.95 G/DL
same,LEUKOCYTE COUNT,[1],7.32 x10E3/uL
same,LYMPHOCYTE,[1],86%
same,MEAN CORPUSCULAR HEMOGLOBIN,[1],24.93 pg
same,MEAN CORPUSCULAR HEMOGLOBIN CONCENTRATION,[1],39.77 G/DL
same,MEAN CORPUSCULAR VOLUME,[1],62.65 fL
same,MONOCYTE,[1],1.67%
same,NEUTROPHIL,[1],11.83%
same,NUCLEATED RED BLOOD CELLS,[1],0 /100WBC
same,PLATELET COUNT,[1],1029 x10E3/uL
same,ALANINE AMINOTRANSFERASE,[1],63.67 u/L
same,ALBUMIN,[1],4.12 G/DL
same,ALKALINE PHOSPHATASE,[1],329.83 u/L
same,ASPARTATE AMINOTRANSFERASE,[1],77.67 u/L
same,BLOOD UREA NITROGEN,[1],18 mg/dL
same,CARBON DIOXIDE,[1],29.67 mmol/L
same,CHLORIDE,[1],102.67 MEQ/L
same,CHOLESTEROL,[1],64.5 mg/dL
same,CREATINE PHOSPHOKINASE,[1],178.67 u/L
same,CREATININE,[1],0.18 mg/dL
same,GLUCOSE,[1],163.83 mg/dL
same,LACTATE DEHYDROGENASE,[1],75.83 u/L
same,LIPASE,[1],10 u/L
same,PHOSPHORUS,[1],8.28 mg/dL
same,POTASSIUM,[1],4.79 MEQ/L
same,SODIUM,[1],142.22 MEQ/L
same,TOTAL BILIRUBIN,[1],0.22 mg/dL
same,TOTAL PROTEIN,[1],5.78 G/DL
same,URIC ACID,[1],0.87 mg/dL
same,ABSOLUTE BASOPHIL,[2],0 CELLS/uL
same,ABSOLUTE EOSINOPHIL,[2],19 CELLS/uL
same,ABSOLUTE LYMPHOCYTE,[2],7803.5 CELLS/uL
same,ABSOLUTE MONOCYTE,[2],117.83 CELLS/uL
same,ABSOLUTE SEGMENTED NEUTROPHIL,[2],1093 CELLS/uL
same,BASOPHIL,[2],0%
same,EOSINOPHIL,[2],0.17%
same,ERYTHROCYTE COUNT,[2],5.84 x10E6/uL
same,HEMATOCRIT,[2],35.75%
same,HEMOGLOBIN,[2],13.87 G/DL
same,LEUKOCYTE COUNT,[2],9.03 x10E3/uL
same,LYMPHOCYTE,[2],87.17%
same,MEAN CORPUSCULAR HEMOGLOBIN,[2],23.78 pg
same,MEAN CORPUSCULAR HEMOGLOBIN CONCENTRATION,[2],38.8 G/DL
same,MEAN CORPUSCULAR VOLUME,[2],61.25 fL
same,MONOCYTE,[2],1.17%
same,NEUTROPHIL,[2],11.5%
same,NUCLEATED RED BLOOD CELLS,[2],0 /100WBC
same,PLATELET COUNT,[2],1098.67 x10E3/uL
same,ALANINE AMINOTRANSFERASE,[2],66 u/L
same,ALBUMIN,[2],4.3 G/DL
same,ALKALINE PHOSPHATASE,[2],291.83 u/L
same,ASPARTATE AMINOTRANSFERASE,[2],80.5 u/L
same,BLOOD UREA NITROGEN,[2],15.67 mg/dL
same,CARBON DIOXIDE,[2],30 mmol/L
same,CHLORIDE,[2],101.67 MEQ/L
same,CHOLESTEROL,[2],69.67 mg/dL
same,CREATINE PHOSPHOKINASE,[2],363.33 u/L
same,CREATININE,[2],0.25 mg/dL
same,GLUCOSE,[2],146.5 mg/dL
same,LACTATE DEHYDROGENASE,[2],219.67 u/L
same,LIPASE,[2],11.33 u/L
same,PHOSPHORUS,[2],10.08 mg/dL
same,POTASSIUM,[2],5.22 MEQ/L
same,SODIUM,[2],144.67 MEQ/L
same,TOTAL BILIRUBIN,[2],0.12 mg/dL
same,TOTAL PROTEIN,[2],6.33 G/DL
same,URIC ACID,[2],0.75 mg/dL
same,ABSOLUTE BASOPHIL,[3],0 CELLS/uL
same,ABSOLUTE EOSINOPHIL,[3],0 CELLS/uL
same,ABSOLUTE LYMPHOCYTE,[3],6441.67 CELLS/uL
same,ABSOLUTE MONOCYTE,[3],98 CELLS/uL
same,ABSOLUTE SEGMENTED NEUTROPHIL,[3],743.67 CELLS/uL
same,BASOPHIL,[3],0%
same,EOSINOPHIL,[3],0%
same,ERYTHROCYTE COUNT,[3],5.19 x10E6/uL
same,HEMATOCRIT,[3],32.77%
same,HEMOGLOBIN,[3],13.27 G/DL
same,LEUKOCYTE COUNT,[3],7.28 x10E3/uL
same,LYMPHOCYTE,[3],88.83%
same,MEAN CORPUSCULAR HEMOGLOBIN,[3],25.65 pg
same,MEAN CORPUSCULAR HEMOGLOBIN CONCENTRATION,[3],40.57 G/DL
same,MEAN CORPUSCULAR VOLUME,[3],63.17 fL
same,MONOCYTE,[3],1.33%
same,NEUTROPHIL,[3],9.83%
same,NUCLEATED RED BLOOD CELLS,[3],0 /100WBC
same,PLATELET COUNT,[3],1091.67 x10E3/uL
same,ALANINE AMINOTRANSFERASE,[3],69.83 u/L
same,ALBUMIN,[3],4.22 G/DL
same,ALKALINE PHOSPHATASE,[3],373.67 u/L
same,ASPARTATE AMINOTRANSFERASE,[3],86 u/L
same,BLOOD UREA NITROGEN,[3],16.5 mg/dL
same,CARBON DIOXIDE,[3],30.17 mmol/L
same,CHLORIDE,[3],101.83 MEQ/L
same,CHOLESTEROL,[3],48.17 mg/dL
same,CREATINE PHOSPHOKINASE,[3],463.67 u/L
same,CREATININE,[3],0.14 mg/dL
same,GLUCOSE,[3],170.83 mg/dL
same,LACTATE DEHYDROGENASE,[3],85.33 u/L
same,LIPASE,[3],9.67 u/L
same,PHOSPHORUS,[3],8.43 mg/dL
same,POTASSIUM,[3],5.04 MEQ/L
same,SODIUM,[3],142.75 MEQ/L
same,TOTAL BILIRUBIN,[3],0.18 mg/dL
same,TOTAL PROTEIN,[3],5.87 G/DL
same,URIC ACID,[3],0.93 mg/dL

# Reference: ChEMBL document CHEMBL3885881, “DrugMatrix”
